Results: ChEMBL document CHEMBL1201862, “PubChem BioAssay data set” (2004)
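Tested at 5 concentrations; 48 h exposure; 96-well plates; endpoints linearly interpolated, else capped at highest concentration. At the GI50, growth is halved.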 Activity calls are given as the source filed them. Cut-off read from the data, not from the text of the source: active = GI50 up to about 1.1 µM and inactive = higher.

Assays:
Experiment in all cases: inhibition of tumour cell growth, NCI panel, 48 h
[1] = system: HCC 2998
[2] = system: MDA-MB-435
[3] = system: NCI-H23
[4] = system: 786-0
[5] = system: SF-295
[6] = system: HL-60
[7] = system: SK-MEL-28
[8] = system: SR
[9] = system: SK-MEL-5
[10] = system: HOP-92
[11] = system: SF-268
[12] = system: SN12C
[13] = system: MCF7
[14] = system: ACHN
[15] = system: M14
[16] = system: T47D
[17] = system: SK-OV-3
[18] = system: COLO 205
[19] = system: UO-31
[20] = system: SK-MEL-2

Measured: GI50

COc1ccc(-c2nc(N(C)C)c3ccccc3n2)cc1
inactive: [1] 6 µM | [2] 15.3 µM | [3] 16 µM | [4] 10.9 µM | [5] 14.2 µM | [6] 12.4 µM | [7] 14.9 µM | [8] 10.8 µM | [9] 13.1 µM | [10] 12.4 µM | [11] 15.9 µM | [12] 7.89 µM | [13] 11 µM | [14] 7.64 µM | [15] 14.1 µM | [16] 10.8 µM | [17] 15.8 µM | [18] 10.1 µM | [19] 3.36 µM | [20] 20.5 µM
